From article PMC12705620 (Frontiers in Pharmacology, 2025)
Several values for one entry are separate records, joined by “and”; a condition that tells them apart may be missing. Equal entries are not always repeated. Where two headings read alike, the source gives them in different places.

Tests used:
[1] = test system: human erythrocytes; test: Hemolytic activity; assay type: cell-based; conditions: 45 min; for Hemolytic concentration (HC) < 30%: 1% human erythrocytes in PBS, 37 °C, absorbance 540 nm, 30% lysis threshold, peptides up to 60 µM, triplicate, single donor
Protocol: Whole blood was collected from healthy volunteers after obtaining informed consent, using Vacuette EDTA tubes (Greiner Bio-One). […] For hemolytic assessment, 180 μL of the prepared erythrocyte suspension was mixed with 20 μL of serially diluted peptide solutions (ranging from 60 to 0.03 μM in PBS).

[2] = test system: S. aureus JAR060131; test: Bactericidal (time-kill) kinetics; assay type: cell-based, Staphylococcus aureus; conditions: 3.75 µM peptide, 1 × 10^6 CFU/mL
Protocol: (§1) Time-kill kinetics were evaluated against S. aureus JAR060131 and A. baumannii RUH875. Mid-logarithmic phase bacterial cultures were diluted to a final concentration of 1 × 10^6 CFU/mL in PBS. Bacteria were incubated with 0.5-, 2-, and 4-fold the LC99.9. Assays were conducted in polypropylene tubes (Micronics) with a total volume of 500 µL. Control samples consisted of bacteria incubated in PBS alone. At 1, 5, 30, and 120 min, 50 µL samples were collected and immediately added to 50 µL of 0.05% (v/v) sodium polyanethol sulfonate (SPS; Sigma-Aldrich) in PBS to neutralize residual peptide activity ([Dankert et al., 1995]). Viable bacterial counts were determined by plating 10 µL of serial 10-fold dilutions onto BA plates. Colonies were counted after 24 h of incubation at 37 °C. All conditions were performed in triplicate.

[3] = test system: A. baumannii RUH875; test: Bactericidal (time-kill) kinetics; assay type: cell-based, Acinetobacter baumannii; conditions: within 1 min at 3.75 µM
Protocol: as §1

[4] = test system: HaCaT human keratinocytes; test: Cytotoxicity (WST-1 and LDH); assay type: cell-based; conditions: for Cytotoxicity, LDH leakage / Cytotoxicity, Metabolic activity: 24 h exposure, triplicate; for Cytotoxicity, LDH leakage: DMEM 2% FBS, concentration causing >30% membrane permeation; for Cytotoxicity, Metabolic activity: WST-1, concentration causing <70% metabolic activity
Protocol: (§2) Cells (5 × 10^5 cells/mL) were seeded in 96-well plates (100 μL/well; Thermo Scientific) and allowed to adhere for 24 h. After adhesion, monolayers were exposed to two-fold serial dilutions of the tetrameric and reference peptides (final concentrations: 60–0.05 µM) in fresh DMEM containing 2% (v/v) FBS, and incubated for 24 h at 37 °C in a humidified 5% CO2 atmosphere. Cell viability was assessed using the water-soluble tetrazolium salt (WST-1; Roche) assay, and membrane integrity was measured using the lactate dehydrogenase (LDH) release assay (Abcam), following manufacturer instructions. Absorbance was measured using the Synergy H1 microplate reader (Biotek). Results are expressed as percentages relative to untreated control (for WST-1) and positive lysis control (for LDH) and all experiments were performed in triplicate.

[5] = test system: human skin fibroblast cells (BJ); test: Cytotoxicity (WST-1 and LDH); assay type: cell-based; conditions: for Cytotoxicity, LDH leakage / Cytotoxicity, Metabolic activity: 24 h exposure, triplicate; for Cytotoxicity, LDH leakage: DMEM 2% FBS, concentration causing >30% membrane permeation; for Cytotoxicity, Metabolic activity: WST-1, concentration causing <70% metabolic activity
Protocol: as §2

[6] = test system: human keratinocytes and dermal fibroblasts; test: Cytotoxicity summary over human skin cells; assay type: cell-based; conditions: 24 h
Protocol: as §2

[7] = test system: S. aureus LUH14616 (MRSA); test: Ex vivo human skin wound infection model; parameters: species or system Staphylococcus aureus; conditions: 200 µM topical, 4 h treatment, versus untreated control (Figure 4C), p < 0.001
Source text: Human skin from 3 donors was obtained via the Residual Tissue Biobank of the Red Cross Hospital (Beverwijk, Netherlands). The use of these coded, post-operative residual tissue samples was approved by patients through the informed opt-out-plus protocol of the Red Cross Hospital Skin ([Code-of-Conduct-for-Health-Research, 2022]) and processed for an ex vivo wound infection model as described ([Dijksteel et al., 2020]). The Wounded skin grafts were sectioned into approximately 1 cm^2 samples using a sterile scalpel and were decontaminated by immersion in 70% ethanol for 30 min, followed by three PBS washes. Samples were placed dermis-down and wound-side-up on stainless steel grids with central indentations, positioned in 12-well plates, and cultured at the air–liquid interface in DMEM at 37 °C and 5% CO2. To confine reagents to the wound area, a resin barrier (OpalDam; Ultradent) was applied to the wounded area and polymerized using a hand-held UV light (Valo X) for 10 s. The wounds were then topically infected with 10 µL of S. aureus LUH14616 suspension of 1 × 10^7 CFU/mL (final dose: 1 × 10^5 CFU/graft) in PBS for 1 h, followed by topical application of 10 µL of peptide solution for 4 h. Chlorhexidine (0.5% (v/v) in 70% ethanol; Entick B.V.) and PBS were used as positive and negative controls, respectively. After treatment, tissue samples were transferred to polypropylene vials containing 1 mL PBS supplemented with 0.025% (v/v) SPS and a 7 mm stainless steel bead. Homogenization was performed using a MagnaLyser System (Roche) with three 30-s cycles at 7,000 rpm, with 30 s of cooling on ice between cycles. Homogenates were 10-fold serially diluted in PBS, and 100 µL aliquots were plated on BA plates. CFUs were enumerated after overnight incubation at 37 °C.

[8] = test system: Acinetobacter baumannii RUH875; assay type: cell-based; conditions: 18 h, 37 °C, median of three independent experiments (Table 1)
Protocol: (§3) Bactericidal activity was assessed as previously described ([Breij et al., 2018]). Briefly, mid-logarithmic phase bacterial cultures were diluted in RPMI to 1 × 10^7 CFU/mL. For fungicidal assays, fungal cultures were prepared in RPMI supplemented with 1% glucose (Merck) and diluted to 2–5 × 10^5 CFU/mL. For each condition, 10 µL of the suspension was added to 90 µL of peptide-containing RPMI or RPMI supplemented with 50% (v/v) pooled human plasma (hereafter referred to as 50% plasma; final bacterial concentration 1 × 10^6 CFU/mL, final fungal concentration 2–5 × 10^4 CFU/mL. Human plasma from four healthy volunteers (Sanquin, Netherlands) was pooled, and stored at −20 °C until use. Peptides were tested similarly for fungicidal activity, after 18 h of incubation at 37 °C with shaking (120 rpm) under humidified conditions, bacterial and fungal survival was determined by plating 10 µL aliquots onto BA plates. Assays were performed in duplicate in round-bottom polypropylene microtiter plates (Costar) and repeated independently three times. Untreated controls included bacteria exposed to RPMI alone or RPMI with 50% plasma. Bactericidal and fungicidal activity was expressed as the lethal concentration 99.9% (LC99.9), defined as the lowest peptide concentration causing ≥99.9% reduction in numbers of CFU compared to the initial inoculum.

[9] = test system: Staphylococcus aureus JAR060131; assay type: cell-based; conditions: 18 h, 37 °C, median of three independent experiments
Protocol: as §3

[10] = test system: TNF-α production by unstimulated dTHP-1 macrophages; test: TNFα induction by peptides alone in macrophages; assay type: cell-based, human; conditions: 2 µM peptide, 4 h, no endotoxin stimulation, versus unstimulated cells
Protocol: The endotoxin-neutralizing capacity of the peptides was assessed by measuring tumor necrosis factor-alpha (TNF-α) production by dTHP-1 macrophages. dTHP-1 macrophages were stimulated with either lipopolysaccharide (LPS; E. coli O111:B4; 5 ng/mL, Sigma-Aldrich) or UV-inactivated S. aureus JAR060131 (MOI 2; as described in Section 5.2), in the presence or absence of one or 2 µM peptides. Cells were cultured in serum-free RPMI and incubated for 4 h at 37 °C with 5% CO2. Positive controls consisted of cells stimulated with LPS or UV-S. aureus without peptide treatment (no treatment, NT), and unstimulated cells served as negative controls. After stimulation, cell supernatants were collected, and cytokine levels of TNF-α were quantified using human ELISA kits (R&D Systems, USA) according to the manufacturer’s instructions. Each condition was tested in triplicate.

[11] = test system: S. aureus RN4220 (mCherry) in dTHP-1 macrophages; test: Intracellular bacterial killing in macrophages; assay type: cell-based, Staphylococcus aureus; conditions: 24 h pre-treatment at 1 µM and 2 µM, MOI 2, CFU after lysis, versus no treatment
Protocol: Human monocytes (THP-1; TIB-202; ATCC) were cultured in RPMI 1,640 medium (Gibco) supplemented with 10% FBS. For differentiation into macrophage-like cells (dTHP-1), THP-1 monocytes were seeded in 96-well plates at 3 × 10^4 cells/well (100 µL) in RPMI supplemented with 50 ng/mL phorbol 12-myristate 13-acetate (PMA; Sigma-Aldrich), and incubated for 48 h. The protocol for intracellular killing was adapted from Tang et al. ([Tang et al., 2015]) with modifications. After differentiation, dTHP-1 cells were pre-treated with one or 2 µM peptide solutions in fresh RPMI for 24 h. Subsequently peptides were removed by washing three times with PBS. An mCherry-expressing S. aureus strain, prepared as described in Section 5.2, was used. This strain is efficiently internalized by macrophages ([Cuypers et al., 2024]). Bacteria were added to dTHP-1 cells at a multiplicity of infection (MOI) of 2:1 and incubated for 45 min at 37 °C with 5% CO2 for phagocytosis. Extracellular bacteria were then removed by washing the wells three times with 60 µL PBS, followed by a final wash with 200 µL PBS.dTHP-1 cells were either lysed immediately to quantify the number of intracellular bacteria, after phagocytosis (T = 0 h) or were incubated for 24 h (T = 24 h) in RPMI supplemented with 10 μg/mL gentamicin (Sigma-Aldrich) to inhibit extracellular bacterial growth (in both peptide-treated and control dTHP-1 cells). Internalized bacteria were quantified after lysing the cells with 0.025% Triton X-100 in PBS for 15 min. Lysates were serially diluted (both at 0 h and 24 h) and plated onto BA for CFU enumeration to assess intracellular bacterial survival.

[12] = test system: HaCaT keratinocytes; test: In vitro scratch wound assay; assay type: cell-based, human; conditions: 1 µM peptide (TGF-β 20 ng/mL), 60 h (legend: 64 h), versus no treatment
Protocol: Cell migration following injury was assessed using an in vitro scratch assay with the IncuCyte wound maker tool (Sartorius). HaCaT keratinocytes were seeded in 96-well ImageLock plates (Sartorius) at 3 × 10^5 cells/well (100 µL) in DMEM supplemented with 10% FBS and incubated at 37 °C, 5% CO2 for 48 h, with medium change at 24 h, until confluence. Uniform scratches were introduced using the wound maker tool according to the manufacturer’s instructions. After wounding, wells were washed twice with 100 µL PBS to remove cell debris. Cells were then treated with 1 µM peptides in serum-free DMEM, to focus specifically on cell migration from the wound edges. The absence of serum minimizes interference with peptide activity. Transforming growth factor-beta (TGF-β; human; 20 ng/mL; Sigma-Aldrich) and 5% dimethyl sulfoxide (DMSO; Sigma-Aldrich) were used as positive and negative controls, respectively. Additional controls included serum-free DMEM (no-treatment control) and 50% (v/v) acetonitrile in Milli-Q water as solvent control. Wound closure was monitored using the IncuCyte S3 live-cell imaging system (Sartorius) with bright-field microscopy. Images were captured every 6 h for up to 60 h. Image analysis was performed using ImageJ software (version 1.53t, NIH, USA) with the “Wound Healing” plugin, as described by Suarez Arnedo et al. ([Suarez-Arnedo et al., 2020]). Quantitative parameters included wound width (µm), percent wound closure, and migration rate (µm/hour).

| Compound | Hemolytic concentration (HC) < 30% [1] | Time to complete killing [2] | Log reduction in CFU [3] | Cytotoxicity, LDH leakage [4] | Cytotoxicity, Metabolic activity [4] | Cytotoxicity, LDH leakage [5] | Cytotoxicity, Metabolic activity [5] | Cytotoxic thresholds, WST-1 and LDH [6] | Reduction of bacterial load (CFU counts) [7] | Hemolysis at the highest concentration tested ([1]; 60 µM, human erythrocytes) | LC99.9 ([8]; 50% pooled human plasma) | LC99.9 ([8]; RPMI) | LC99.9 ([9]; 50% pooled human plasma in RPMI) | LC99.9 ([9]; RPMI, 1 × 10^6 CFU/mL) | Cytotoxicity threshold (tolerance), WST-1 and LDH ([4]; keratinocytes, 24 h) | Cytotoxicity threshold (tolerance), WST-1 and LDH ([5]; fibroblasts, 24 h) | TNFα induction by peptide alone [10] | Macrophage reduction of intracellular S. aureus burden 24 h post-phagocytosis [11] | Percentage of wound closure [12] |
| --- | --- | --- | --- | --- | --- | --- | --- | --- | --- | --- | --- | --- | --- | --- | --- | --- | --- | --- | --- |
| Ac-LKRVWKRVFKLLKRYWRQLKKPVR-NH2 (N-terminus and C-terminus assumed) [SAAP-148, reference compound] | 0.47 µM | ≤ 5 min | > 3 log | 3.75 µM | 3.75 µM | 1.88 µM | 3.75 µM | 1.88 to 3.75 µM | significantly reduced bacterial load |  |  |  |  |  |  |  |  |  |  |
| CC[C@H](C)[C@H](NC(=O)[C@H](CCCCN)NC(=O)[C@H](CCC(=O)O)NC(=O)[C@H](CCCCN)NC(=O)[C@H](CO)NC(=O)[C@H](CCCCN)NC(=O)[C@H](CCCNC(=N)N)NC(=O)[C@H](Cc1ccccc1)NC(=O)[C@H](Cc1ccccc1)NC(=O)[C@H](CC(=O)O)NC(=O)CNC(=O)[C@H](CC(C)C)NC(=O)[C@@H](N)CC(C)C)C(=O)NCC(=O)N[C@@H](CCCCN)C(=O)N[C@@H](CCC(=O)O)C(=O)N[C@@H](Cc1ccccc1)C(=O)N[C@@H](CCCCN)C(=O)N[C@@H](CCCNC(=N)N)C(=O)N[C@H](C(=O)N[C@H](C(=O)N[C@@H](CCC(N)=O)C(=O)N[C@@H](CCCNC(=N)N)C(=O)N[C@H](C(=O)N[C@@H](CCCCN)C(=O)N[C@@H](CC(=O)O)C(=O)N[C@@H](Cc1ccccc1)C(=O)N[C@@H](CC(C)C)C(=O)N[C@@H](CCCNC(=N)N)C(=O)N[C@@H](CC(N)=O)C(=O)N[C@@H](CC(C)C)C(=O)N[C@H](C(=O)N1CCC[C@H]1C(=O)N[C@@H](CCCNC(=N)N)C(=O)N[C@H](C(=O)N[C@@H](CCC(=O)O)C(=O)N[C@@H](CO)C(=O)O)[C@@H](C)O)C(C)C)[C@@H](C)CC)C(C)C)[C@@H](C)CC [LL-37, reference compound] | >60 µM |  |  | 15 µM | 15 µM | 7.5 µM | 15 µM |  |  | non-hemolytic | > 120 µM and >120 µM | >120 µM | 60 µM | 1.88 µM | 15 µM | 7.5 to 15 µM | minimal but significant | significantly enhanced | significant wound closure |
